From ChEMBL document CHEMBL1201862, “PubChem BioAssay data set” (2004) come the findings set out here.

What is called GI50 is the concentration giving 50% growth inhibition.

Test systems include RXF 393; ACHN; SR; SW-620; U-251; HOP-62; HOP-92; UO-31; MDA-MB-435; A549; A498; SF-295; KM12; K562; BT-549; HL-60; SK-MEL-28; SK-MEL-2; OVCAR-4.
What all share (test): DTP human tumour cell line panel, 48 h

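Each compound was tested at five concentrations against cells in 96-well plates for 48 hours. GI50 marks 50% less growth.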 Activity calls are given as the source filed them. Cut-off read from the data, not from the text of the source: active = GI50 up to about 1.1 µM and inactive = higher.

With `O=C(O)CCNCC(=O)O`, the GI50 in the assay with RXF 393, in the assay with ACHN, with SR, in the assay on SW-620, in the assay with U-251 and in the assay with HOP-62 was > 100 µM (inactive) in each case. The GI50 in the assay with HOP-92, in the assay on UO-31, with MDA-MB-435, in the assay on A549, in the assay with A498 and in the assay on SF-295 was > 100 µM (inactive) throughout. Besides, the GI50 with KM12, in the assay on K562, with BT-549, in the assay with HL-60, in the assay with SK-MEL-28 and in the assay on SK-MEL-2 was > 100 µM (inactive) throughout.

For the compound `O=[N+]([O-])c1ccc(/C(=N/c2ccccc2)SS/C(=N\c2ccccc2)c2ccc([N+](=O)[O-])o2)o1`, the GI50 in the assay with RXF 393 was 1.75 µM (inactive); in the assay on OVCAR-4, 1.47 µM (inactive); in the assay on ACHN it was 1.91 µM (inactive); in the assay with SR, 0.425 µM (active); with SW-620, 0.425 µM (active); in the assay on U-251 it was 0.955 µM (active). The GI50 in the assay on HOP-62 is 2.17 µM (inactive); with HOP-92 it was 2.93 µM (inactive); in the assay on UO-31, 1.47 µM (inactive); with MDA-MB-435, 2.1 µM (inactive); in the assay on A549, 1.91 µM (inactive); in the assay on SF-295, 2.76 µM (inactive). The GI50 with KM12 is 1.68 µM (inactive); in the assay on K562, 1.34 µM (inactive); in the assay on BT-549, 1.75 µM (inactive); in the assay on HL-60, 2.09 µM (inactive); in the assay on SK-MEL-28, 2.4 µM (inactive); with SK-MEL-2 it was 2.51 µM (inactive).

As to `COC(=O)c1ccccc1CC1Cc2ccc3c(c2C1=O)CCCC3` (centres undefined), the GI50 is 23.3 µM (inactive) with OVCAR-4; 48.1 µM (inactive) in the assay with ACHN; 14 µM (inactive) with SR; 32 µM (inactive) in the assay with SW-620; 50.6 µM (inactive) in the assay with U-251; > 77.4 µM (inactive) in the assay on HOP-62. In addition, the GI50 is 52.8 µM (inactive) in the assay on UO-31; 34.6 µM (inactive) in the assay with MDA-MB-435; 34.3 µM (inactive) in the assay with A549; 52.8 µM (inactive) in the assay with A498; 32 µM (inactive) in the assay with SF-295; 46.2 µM (inactive) in the assay with KM12. For the same compound, the GI50 was 17 µM (inactive) in the assay with K562; 49.1 µM (inactive) in the assay with BT-549; 12.9 µM (inactive) with HL-60; 64.9 µM (inactive) with SK-MEL-28; 24.7 µM (inactive) with SK-MEL-2.

Take `CCOC(=O)C1C(c2ccc(O)c(OC)c2)c2c(n[nH]c2O)CC1(C)O` (centres undefined): the GI50 in the assay on OVCAR-4, in the assay on ACHN, in the assay on SR, in the assay with SW-620, with U-251 and in the assay on HOP-62 was > 100 µM (inactive) in each case. Also, the GI50 with HOP-92, with UO-31, with MDA-MB-435, with A549, in the assay with A498 and with SF-295 was > 100 µM (inactive) throughout. For the same compound, the GI50 in the assay on KM12 is > 100 µM (inactive); in the assay on BT-549, 0.0159 µM (active); in the assay on HL-60 it was > 100 µM (inactive); in the assay with SK-MEL-28 it was > 100 µM (inactive); in the assay on SK-MEL-2, > 100 µM (inactive).

Consider `O=C(Nc1ccc(Cl)cc1)Oc1ccc(C(=S)Nc2ccc(Br)cc2)cc1`, for which the GI50 in the assay with OVCAR-4 is 7.4 µM (inactive); in the assay with ACHN, 12.2 µM (inactive); in the assay with SR, 5.06 µM (inactive); with SW-620 it was 20.3 µM (inactive); in the assay with U-251 it was 20.5 µM (inactive); in the assay on HOP-62, 39.3 µM (inactive). Besides, the GI50 in the assay on UO-31 is 18.2 µM (inactive); in the assay with MDA-MB-435, 12.4 µM (inactive); in the assay with A549 it was 10 µM (inactive); in the assay on A498 it was 19.1 µM (inactive); with SF-295, 0.438 µM (active); in the assay on KM12, 2.55 µM (inactive). The GI50 with K562 was 2.36 µM (inactive); in the assay with BT-549, 17.9 µM (inactive); with HL-60, 1.61 µM (inactive); with SK-MEL-28, 10.4 µM (inactive); with SK-MEL-2 it was 6.62 µM (inactive).

`O=C(NC(CS)C(=O)O)c1c2ccccc2nc2ccccc12` (centres undefined): the GI50 is > 100 µM (inactive) in the assay on OVCAR-4; 21.3 µM (inactive) in the assay on ACHN; > 100 µM (inactive) in the assay on SR; 34 µM (inactive) with SW-620; 75 µM (inactive) with U-251; 38.7 µM (inactive) in the assay with HOP-62. Moreover, the GI50 with HOP-92 was > 100 µM (inactive); in the assay with UO-31, 3.87 µM (inactive); in the assay on MDA-MB-435 it was 2.81 µM (inactive); with A549 it was 19.7 µM (inactive); in the assay with A498, > 100 µM (inactive); with SF-295 it was 21.5 µM (inactive). The GI50 with KM12 was 24.8 µM (inactive); in the assay on K562, 40.2 µM (inactive); in the assay with BT-549, 12.8 µM (inactive); in the assay on HL-60, 0.16 µM (active); in the assay on SK-MEL-28, 74.1 µM (inactive); in the assay with SK-MEL-2, 47.8 µM (inactive).

Turning to `Cn1cnc([N+](=O)[O-])c1Sc1nncc2[nH]cnc12`, the GI50 with OVCAR-4, in the assay on ACHN, with SR, in the assay on SW-620, with U-251 and in the assay with HOP-62 was > 100 µM (inactive) in each case. Also, the GI50 in the assay on HOP-92, in the assay with UO-31, in the assay with MDA-MB-435, in the assay with A549, in the assay with A498 and in the assay on SF-295 was > 100 µM (inactive) throughout. For the same compound, the GI50 in the assay with KM12, in the assay on K562, in the assay on BT-549, in the assay on HL-60, with SK-MEL-28 and in the assay with SK-MEL-2 was > 100 µM (inactive) throughout.

In the case of `Nc1ccc(CCN2CCN(CCCc3ccccc3)CC2)cc1`, the GI50 is 53.1 µM (inactive) with OVCAR-4; > 100 µM (inactive) in the assay with ACHN; 27.6 µM (inactive) with SR; > 100 µM (inactive) in the assay with SW-620; > 100 µM (inactive) in the assay on U-251; > 100 µM (inactive) with HOP-62. Also, the GI50 in the assay on UO-31 was 56.9 µM (inactive); in the assay with MDA-MB-435, > 100 µM (inactive); in the assay on A549, > 100 µM (inactive); with A498 it was > 100 µM (inactive); in the assay on SF-295, > 100 µM (inactive); with KM12 it was 82.8 µM (inactive). In addition, the GI50 was 24.2 µM (inactive) with K562; 80.7 µM (inactive) with BT-549; 26.6 µM (inactive) in the assay on HL-60; > 100 µM (inactive) in the assay with SK-MEL-28; > 100 µM (inactive) in the assay with SK-MEL-2.

For the compound `CC(=O)O[C@H]1C(=O)[C@@]2(C)[C@H]([C@H](OC(=O)C3CCCCC3)[C@]3(O)C[C@H](OC(=O)[C@H](O)[C@@H](NC(=O)C4CCCCC4)C4CCCCC4)C(C)=C1C3(C)C)[C@]1(OC(C)=O)CO[C@@H]1C[C@@H]2O`, the 50% growth inhibitory concentration (GI50) in the assay on RXF 393 is 0.0407 µM (active); in the assay on OVCAR-4, 0.538 µM (active); in the assay with ACHN, 0.168 µM (active); with SR it was 0.0082 µM (active); in the assay on SW-620 it was 0.01 µM (active); in the assay on U-251, 0.0117 µM (active). In addition, the GI50 is 0.0222 µM (active) in the assay with HOP-62; 0.0427 µM (active) in the assay with HOP-92; 0.344 µM (active) with UO-31; 0.00256 µM (active) in the assay with MDA-MB-435; 0.0326 µM (active) in the assay with A549; 0.0902 µM (active) with A498. In addition, the GI50 in the assay with SF-295 was 0.0321 µM (active); with KM12, 0.0101 µM (active); in the assay with K562 it was 0.0128 µM (active); in the assay with BT-549, 0.0556 µM (active); with HL-60 it was 0.00586 µM (active); in the assay on SK-MEL-28, 0.479 µM (active).

In the case of `O=C1C(Br)=CC2(C=C1Br)CCNC1=C2C(=O)c2ncccc2C1=O`, the GI50 is 1 µM (active) in the assay with RXF 393; 1.22 µM (inactive) with OVCAR-4; 0.56 µM (active) in the assay with ACHN; 0.457 µM (active) in the assay on SR; 1.1 µM (active) in the assay with SW-620; 1.31 µM (inactive) in the assay with U-251. Further, the concentration for 50% growth inhibition (GI50) with HOP-62 was 0.542 µM (active); in the assay with HOP-92 it was 1.82 µM (inactive); in the assay with UO-31, 1.07 µM (active); with MDA-MB-435, 0.189 µM (active); with A549, 1.44 µM (inactive); in the assay with SF-295, 1.37 µM (inactive). In addition, the GI50 in the assay with KM12 was 1.25 µM (inactive); with K562, 0.266 µM (active); with BT-549, 1.42 µM (inactive); in the assay with HL-60, 1.06 µM (active); in the assay with SK-MEL-28, 0.443 µM (active); in the assay with SK-MEL-2, 0.116 µM (active).

`O=C(O)Cc1cccc2c(=O)c3ccccc3oc12`: the GI50 with OVCAR-4, in the assay on ACHN, in the assay with SR, in the assay with SW-620, in the assay with U-251 and with HOP-62 was > 100 µM (inactive) in each case. Besides, the GI50 in the assay with HOP-92, in the assay on UO-31, in the assay on MDA-MB-435, with A549, with A498 and with SF-295 was > 100 µM (inactive) each time. In addition, the GI50 in the assay on KM12 is > 100 µM (inactive); in the assay with K562 it was > 100 µM (inactive); in the assay on BT-549, > 100 µM (inactive); in the assay on HL-60, > 100 µM (inactive); in the assay with SK-MEL-28, > 100 µM (inactive); in the assay on SK-MEL-2, 27.3 µM (inactive).
